According to patent US9334280B2, “Synthetic rigidin analogues as anticancer agents, salts, solvates and prodrugs thereof, and method of producing same” (New Mexico Technical Research Foundation, priority 2012, dated 2016):

Assays:
[1] = tested on: HeLa cervical adenocarcinoma cells; assay: MTT antiproliferative assay, HeLa; type: cell-based; settings: Homo sapiens, Table 1, 48 h treatment, MTT, ± SD, read-out: GI50 in vitro Values, HeLa
Summary of the method: (§1)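 Cells were seeded at 4×10^3 per well, grown 24 h, then treated at 0.04–100 μM for 48 h; HeLa in DMEM and MCF-7 in RPMI, each with 10% FBS. MTT for 2 h, formazan dissolved in DMSO, A490 read; quadruplicate, at least two repeats, 0.1% DMSO vehicle control and 1 μM phenyl arsine oxide as positive killing control.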

[2] = tested on: MCF-7 mammary gland adenocarcinoma cells; assay: MTT antiproliferative assay, MCF-7; type: cell-based; settings: Homo sapiens, MCF7; Table 1; 48 h treatment, MTT, ± SD; read-out: GI50 in vitro Values, MCF-7
Summary of the method: as §1

[3] = tested on: UM-SCC10A head and neck cancer cells; assay: MTT antiproliferative assay, UM-SCC10A; type: cell-based; settings: UMSCC-10A, Table 1A, 48 h, read-out: Concentration required to reduce the viability of cells by 50%, UM-SCC10A
Experimental: (§2) To evaluate antiproliferative properties of the compounds of Formula I, mitochondrial dehydrogenase activities were measured using the MTT assay. The cell lines were prepared by trypsinizing and seeding […] cells per well into microplates. All compounds were reconstituted in dimethyl sulfoxide (DMSO) at a concentration of either 100 mM or 25 mM prior to treatment. The cells were grown for 24 hrs before treatment at concentrations ranging from 0.004 to 100 microM and incubated for 48 hrs in 200 microL media. 20 microL of MTT reagent in serum free medium (5 mg/mL) was added to each well and incubated further for 2 hrs. Media was removed and the resulting formazan crystals were re-solubilized in 100 microL of DMSO and the optical density (OD) was measured using a Thermomax Molecular Device plate reader at a wavelength of 490 nm. The experiments were performed in quadruplicate and repeated at least twice for each compound per cell line. Cells treated with 0.1% DMSO were used as a negative control, while phenyl arsine oxide (PAO) was used as a positive killing control.

[4] = tested on: UM-SCC10B head and neck metastases cells; assay: MTT antiproliferative assay, UM-SCC10B; type: cell-based; settings: Table 1A, 48 h, read-out: Concentration required to reduce the viability of cells by 50%, UM-SCC10B
Experimental: as §2

[5] = tested on: UM-SCC22B head and neck metastases cells; assay: MTT antiproliferative assay, UM-SCC22B; type: cell-based; settings: Homo sapiens, UMSCC22B, Table 1A, 48 h, read-out: Concentration required to reduce the viability of cells by 50%, UM-SCC22B
Experimental: as §2

U373 glioblastoma cells = assay: MTT antiproliferative assay, U373; type: cell-based, human; settings: Homo sapiens, U373 MG; Table 2; 48 h, MTT; read-out: GI50 in vitro values, U373
Experimental: as §2
(§3) Human cancer cell lines were obtained from the American Type Culture Collection (ATCC, Manassas, Va., USA), the European Collection of Cell Culture (ECACC, Salisbury, UK) and the Deutsche Sammlung von Mikroorganismen and Zellkulturen (DSMZ, Braunschweig, Germany). Human cervical adenocarcinoma HeLa cells were cultured in DMEM supplemented with 10% fetal bovine serum (FBS). Human mammary carcinoma MCF-7 cells were cultured in RPMI supplemented with 10% FBS. The U87 and U373 cells were cultured in DMEM culture medium (Lonza code 12-136F, Vervier, Belgium), while the SKMEL-28 and A549 cells were cultured in RPMI culture medium (Lonza; code 12-115F) supplemented with 10% heat-inactivated FBS (Lonza, FBS South America code DE14-801F). […] All cell lines were cultured in T25 flasks, maintained and grown at 37° C., 95% humidity, 5% CO2.
(§4) To evaluate antiproliferative properties of the synthesized compounds, the MTT assay was used. The cell lines were assessed by trypsinizing each cell line and seeding 4×10^3 cells per well into 96-well plates. All compounds were dissolved in DMSO at a concentration of either 100 mM or 50 mM prior to cell treatment. The cells were grown for 24 h and then treated with compounds at concentrations ranging from 0.04 to 100 μM and incubated for 48 h in 200 μL media. 20 μL of MTT reagent in serum free medium (5 mg/mL) was added to each well and incubated further for 2 h. Media was removed, and the resulting formazan crystals were re-solubilized in 200 μL of DMSO. A490 was measured using a Thermomax Molecular Device plate reader. The experiments were performed in quadruplicate and repeated at least twice for each compound per cell line. […]

[6] = tested on: Hs683 anaplastic oligodendroglioma cells; assay: MTT antiproliferative assay, Hs683; type: cell-based; settings: Homo sapiens, Hs 683, Table 2, 48 h, read-out: GI50 in vitro values, Hs683
Experimental: as §2

[7] = tested on: A549 non-small-cell lung cancer cells; assay: MTT antiproliferative assay, A549; type: cell-based; settings: Homo sapiens, Table 2, 48 h, read-out: GI50 in vitro values, A549
Experimental: as §2, §3
To evaluate antiproliferative properties of the synthesized compounds, the MTT assay was used. The cell lines were assessed by trypsinizing each cell line and seeding 4×10^3 cells per well into 96-well plates. All compounds were dissolved in DMSO at a concentration of either 100 mM or 50 mM prior to cell treatment. The cells were grown for 24 h and then treated with compounds at concentrations ranging from 0.04 to 100 μM and incubated for 48 h in 200 μL media. 20 μL of MTT reagent in serum free medium (5 mg/mL) was added to each well and incubated further for 2 h. Media was removed, and the resulting formazan crystals were re-solubilized in 200 μL of DMSO. A490 was measured using a Thermomax Molecular Device plate reader. The experiments were performed in quadruplicate and repeated at least twice for each compound per cell line. Cells treated with 0.1% DMSO were used as a control, and 1 μM phenyl arsine oxide (PAO) was used as a positive killing control.

SKMEL-28 melanoma cells = assay: MTT antiproliferative assay, SKMEL-28; type: cell-based, human; settings: Homo sapiens, SK-MEL-28; Table 2; 48 h, MTT; read-out: GI50 in vitro values, SKMEL-28
Experimental: as §2, §3, §4

B16F10 melanoma cells = assay: MTT antiproliferative assay, B16F10; type: cell-based; settings: Mus musculus, B16-F10, Table 2, 48 h, read-out: GI50 in vitro values, B16F10
Experimental: as §2

[8] = tested on: MES-SA uterine sarcoma cells; assay: MTT antiproliferative assay, MES-SA; type: cell-based; settings: Homo sapiens, Table 3, parental drug-responsive cell line, read-out: GI50 in vitro Values, MES-SA
Experimental: Human T-cell leukemia cell line Jurkat (ATCC TIB-152, E6-1 clone) was cultured in RPMI-1640 (Invitrogen) supplemented with 10% FBS (Invitrogen), 100 mg/L penicillin G, 100 mg/L streptomycin, 1.0 mM sodium pyruvate, 1.5 g/L sodium bicarbonate, and 4.5 g/L glucose (all from Sigma). Human cervical cancer cell line HeLa (ATCC S3) was cultured in DMEM (Invitrogen) supplemented with 10% FBS, 100 mg/L penicillin G, and 100 mg/L streptomycin. MCF-7 (human mammary carcinoma) cells were cultured in DMEM supplemented with 1.0 mM sodium pyruvate, 1% GlutaMax™-1 (Invitrogen), 100 μg/mL penicillin, 100 μg/mL streptomycin, and 10% FBS. Human uterine sarcoma MES-SA and MES-SA/Dx5 cells were cultured in RPMI-1640 medium supplemented with 10% FBS, 100 mg/L penicillin G and 100 mg/L streptomycin. All cells were incubated at 37° C. in a humidified atmosphere with 5% CO2. […]
To evaluate antiproliferative properties of the compounds of Formula I, mitochondrial dehydrogenase activities were measured using the MTT assay. […] Media was removed and the resulting formazan crystals were re-solubilized in 100 microL of DMSO and the optical density (OD) was measured using a Thermomax Molecular Device plate reader at a wavelength of 490 nm. […]
The cells of such tumors are referred to as multidrug resistant (MDR). Thus, we assessed the compounds of Formula I for antiproliferative activity in an MDR cancer cell line. […]

[9] = tested on: MES-SA/Dx5 uterine sarcoma cells (overexpress p-gp); assay: MTT antiproliferative assay, MDR MES-SA/Dx5; type: cell-based, human
Experimental: Human T-cell leukemia cell line Jurkat (ATCC TIB-152, E6-1 clone) was cultured in RPMI-1640 (Invitrogen) supplemented with 10% FBS (Invitrogen), 100 mg/L penicillin G, 100 mg/L streptomycin, 1.0 mM sodium pyruvate, 1.5 g/L sodium bicarbonate, and 4.5 g/L glucose (all from Sigma). Human cervical cancer cell line HeLa (ATCC S3) was cultured in DMEM (Invitrogen) supplemented with 10% FBS, 100 mg/L penicillin G, and 100 mg/L streptomycin. MCF-7 (human mammary carcinoma) cells were cultured in DMEM supplemented with 1.0 mM sodium pyruvate, 1% GlutaMax™-1 (Invitrogen), 100 μg/mL penicillin, 100 μg/mL streptomycin, and 10% FBS. Human uterine sarcoma MES-SA and MES-SA/Dx5 cells were cultured in RPMI-1640 medium supplemented with 10% FBS, 100 mg/L penicillin G and 100 mg/L streptomycin. All cells were incubated at 37° C. in a humidified atmosphere with 5% CO2. The other cell lines were maintained in a similar fashion as previously described.
as §2
The cells of such tumors are referred to as multidrug resistant (MDR). Thus, we assessed the compounds of Formula I for antiproliferative activity in an MDR cancer cell line. This was done using the uterine sarcoma cells, MES-SA/Dx5, which overexpress p-gp. The parental drug-responsive MES-SA cell line was used as control.

`O=C(c1ccccc1)c1[nH]c2[nH]cnc(=O)c2c1-c1cc(Br)cc(Br)c1` [Rig8, 6-Benzoyl-5-(3,5-dibromophenyl)-1H-pyrrolo[2,3-d]pyrimidin-4(7H)-one] showed a GI50 [1] of 95 ± 40 nM, a GI50 [2] of 95 ± 10 nM and an IC50 [3] of 90 nM. It also gave an IC50 [4] of 100 nM, an IC50 [5] of 20 nM and a GI50 (U373 glioblastoma cells) of 30 nM. For the same compound, the GI50 [6] was 20 nM, the GI50 [7] was 30 nM and the GI50 (SKMEL-28 melanoma cells) was 20 nM. For the same compound, the GI50 (B16F10 melanoma cells) was 50 nM, the GI50 [8] was 81 ± 6 nM and the GI50 ([9]; Homo sapiens, MES-SA/Dx5, Table 3, MDR cell line, read-out: GI50 in vitro Values, MES-SA/Dx5) was 394 ± 10 nM. The “variation in the sensitivities of the parental and MDR cell lines” value ([9]; MES-SA/Dx5 vs MES-SA, in words) was “only a small variation”.
